Source: patent US20240208950A1, “COMPOSITIONS AND METHODS FOR TREATMENT OF CERVICAL AND OVARIAN CANCER” (SOUTH DAKOTA BOARD OF REGENTS, priority 2021, published 2024)

How the values were obtained:
Assay type in all cases: cell-based, human
CaSki cells = test: Colony formation assay, CaSki; settings: CaSki, 2.5, 5 and 7.5 μM
Experimental: FIGS. 5A and 5B show representative colony images of CaSki cells (FIG. 5A) and SiHa cells (FIG. 5B) treated with various concentrations of ORM-Br ranging from […]. FIGS. 5C and 5D represent the quantification of colony formation in CaSki cells (FIG. 5C) and SiHa cells (FIG. 5D) treated with various concentrations of ORM-Br ranging from 0 to 7.5 μM.
To determine the effect of Br-ORM on clonogenic potential of CaSki and SiHa cells, a colony formation assay was performed. In brief, 500 cells were seeded per well in a 6-well plate and allowed to stand for the next three days. The cells were treated with Br-ORM with different concentrations (2.5, 5, and 7.5 μM) for seven days and then followed by normal growth media. […] Colonies were fixed in methanol, stained with haematoxylin, and counted using UVP 810 software.
FIG. 13. […] Cell viability was assessed by MTS assay. […] Bar graphs indicating quantification of colony formation in CaSki (i), and SiHa (ii) cells of cervical cancer with respect to vehicle control. […] Briefly, cervical cancer cells were treated with Br-ORM (10 μM) for 24 hours and the apoptosis inducing effect of Br-ORM was analyzed by Annexin V staining. […] The equal loading of protein in each lane was determined by probing the blots with β-actin antibody (FIG. 13F). […] Br-ORM arrests cell cycle in G1/S phase as determined by flow cytometry. […]

[1] = system: cleaved PARP in SiHa cells; test: Western blot for cleavage of PARP, SiHa; settings: 24 hours
Experimental: The effect of Br-ORM on protein expression in cervical cancer cells were determined by Western blot analysis by using specific antibodies.
It was observed that Br-ORM exerts potent growth inhibitory effects, so the effect of Br-ORM on apoptosis induction was further examined. Cervical cancer cells were treated with Br-ORM (10 μM) for 24 hours and the apoptosis inducing effect of Br-ORM was analyzed by Annexin V staining and Western blot analysis for cleavage in PARP protein.
FIG. 13. Br-ORM decreases proliferation and colony formation of cervical cancer cells. FIG. 13A. Effect of Br-ORM on cell viability of CaSki cells (i) and SiHa cells (ii). Briefly, cervical cancer cells were seeded (2500) in each well of 96-well plate and after overnight incubation; cells were treated with indicated concentrations of Br-ORM for 24 hours. Cell viability was assessed by MTS assay. […] Bar graphs indicating quantification of colony formation in CaSki (i), and SiHa (ii) cells of cervical cancer with respect to vehicle control. […] Briefly, cervical cancer cells were treated with Br-ORM (10 μM) for 24 hours and the apoptosis inducing effect of Br-ORM was analyzed by Annexin V staining. […] The equal loading of protein in each lane was determined by probing the blots with β-actin antibody (FIG. 13F). […] Br-ORM arrests cell cycle in G1/S phase as determined by flow cytometry. […]

β-catenin in SiHa cells [2] = test: Western blot of β-catenin in nuclear and cytoplasmic extracts, SiHa; settings: 15 μM, 24 hours
Experimental: In the Example shown at FIGS. 9A-9E, cells were subjected to treatment with 15 μM concentration of ORM-Br for 24 hours, nuclear extracts were prepared and western blot analysis were used to detect the protein levels of β-catenin. […] Western blots were reprobed with β-actin and Histone H3 antibodies as an internal control.
The nuclear and cytoplasmic lysates were prepared using respective buffers. The cell lysates (40 μg) were subjected to SDS-PAGE and blotted on PVDF membrane. The membranes were further blocked in 5% milk diluted in 1×TBST solution for 1 hour and incubated overnight in primary antibodies. The following day, the membranes were washed and incubated with secondary antibodies for 1 hour, washed again and developed on a UVP system using chemi-luminiscent reagents.
The EMT process in a cell is driven by growth factors or other signaling proteins such as Wnt/beta-catenin and extracellular matrix component that may stimulate cellular growth and migration. The effect of Br-ORM on β-catenin signaling was examined.
FIG. 15. Effect OF Br-ORM on β-catenin signaling and molecular docking of Br-ORM with β-catenin. Effect of Br-ORM on β-catenin distribution in cytoplasm and nucleus of CaSki and SiHa cells. […] Effect of Br-ORM on β-catenin localization in CaSki cells as determined by confocal microscopy (FIG. 15B(i)-(ii)). […]

β-catenin in CaSki cells = test: β-catenin degradation with cyclohexamide (western blot, pulse chase), CaSki; settings: ORM-Br
Experimental: (§1) A western blot analysis was conducted to determine the effect of ORM-Br on β-catenin degradation. […] Protein lysates were prepared and subjected to western blot analysis to ascertain the levels of protein of β-catenin in cyclohexamide-treated cells (FIG. 3A) and in ORM-Br and cyclohexamide-treated cells (FIG. 3B).

β-catenin in SiHa cells [3] = test: β-catenin degradation with cyclohexamide (western blot, pulse chase), SiHa; settings: with cyclohexamide (CHX: 50 mg), ORM-Br
Experimental: as §1

## COc1ccc2c(c1)OC(C)(C)C(c1ccc(Br)cc1)C2c1ccc(OCCN2CCCC2)cc1 (stereo not shown) [ORM-Br]
CaSki cells
  colony formation (clonogenic potential): suppresses the clonogenic potential
CaSki cells; listed as Br-ORM
  colony formation (clonogenic potential): significantly decreased the number of colonies
[1]
  protein levels of cleaved PARP: dose dependently enhanced the protein levels of cleaved PARP
β-catenin in SiHa cells [2]
  nuclear β-catenin expression: decrease in expression of nuclear β-catenin
β-catenin in SiHa cells [2]; listed as Br-ORM
  nuclear β-catenin expression: inhibited nuclear β-catenin
β-catenin in CaSki cells
  protein levels of β-catenin relative to cyclohexamide treatment: significant decrease in protein levels of β-catenin
β-catenin in SiHa cells [3]
  protein levels of β-catenin relative to cyclohexamide treatment: significant decrease in protein levels of β-catenin
